Test: gradient 5% acetonitrile 3 min, to 50% in 2 min, to 85% in 15 min, held 3 min, 100 µL/min
Conditions: column: Zorbax Extend-C18 2.1 x 50 mm; eluents: water / acetonitrile, 0.1% formic acid
Procedure, shortened: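 Values are retention times taken from adduct peaks that software picked and an analyst inspected. The pure standards were run as mixtures of ~100 molecules on HPLC linked to a quadrupole time-of-flight mass spectrometer, in positive and negative ionization mode. A Zorbax Extend-C18 column (2.1 × 50 mm, 1.8 μm) was used at 100 μL/min with water and acetonitrile, each including 0.1% formic acid.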
`COc1ccc(OC)c2[nH]c(C(=O)N[C@H](C(=O)O)c3ccccc3)cc12` gave an RP-LC retention time of 891 s.
Compound `O=C(Cn1ncc2c(N3CCN(c4ccccn4)CC3)ncnc21)Nc1ccc(Br)cc1` has an RP-LC retention time of 652 s.
Work on `Nc1nc(SCC(=O)Nc2cccc(C(F)(F)F)c2)n[nH]1` yielded an RP-LC retention time of 637 s.
With `Cc1sc2ccn(C)c(=O)c2c1C(=O)NCc1ccccc1F` the RP-LC retention time was 751 s.
`Cc1ccc2c(c1)OCC(=O)N2Cc1nc(-c2cccc(C(F)(F)F)c2)no1` showed an RP-LC retention time of 919 s.
With `COc1ccc(Cl)cc1NC(=O)Nc1ccc2c(c1)N(C)C(=O)C(C)(C)CO2` the RP-LC retention time was 981 s.
In the case of `CCOC(=O)c1ccc(NC(=O)Cn2nc3c(N4CCSCC4)nccn3c2=O)cc1`, the RP-LC retention time is reported as 828 s.
`Cc1ccc(-c2noc(C3CCCCN3)n2)cc1` (centres undefined) showed an RP-LC retention time of 630 s.
For `O=C1CC(c2nc(-c3ccc4c(c3)OCO4)no2)CN1c1ccc(F)cc1` (centres undefined), the RP-LC retention time was 923 s.
Work on `CCn1c(=O)sc2cc(S(=O)(=O)N3CCC(C(=O)NCc4cccs4)CC3)ccc21` yielded an RP-LC retention time of 832 s.
Compound `Cc1nn(CC(=O)NCCN(C)Cc2ccccc2)c(=O)c2noc(C)c12` has an RP-LC retention time of 595 s.
Work on `CC(C)NC(=O)c1cccc(Nc2c(-c3ccccc3)nc3cnccn23)c1` yielded an RP-LC retention time of 719 s.
Work on `COc1cc(NC(=O)Nc2c(-c3ccc(F)cc3)nc3ccccn23)cc(OC)c1` yielded an RP-LC retention time of 678 s.
Compound `O=S(=O)(c1ccccc1)N1CC(n2cnnc2-c2ccccc2)C1` has an RP-LC retention time of 641 s.
For `CC(C)NC(=O)CCNc1c(-c2ccc(F)cc2)nc2cnccn12`, the RP-LC retention time was 616 s.
Compound `CCOCCCNC(=S)Nc1ccc2nc(N3CCN(CC)CC3)cc(C)c2c1` has an RP-LC retention time of 578 s.
In the case of `S=C1SCN(CCc2ccccc2)CN1CCc1ccccc1`, the RP-LC retention time is reported as 1210 s.
In the case of `CSc1cccc(NC(=O)CCc2c(-c3ccc(F)cc3)nc3ccccn23)c1`, the RP-LC retention time is reported as 713 s.
Work on `CCCCC(=O)N1CCN(c2cc(C)nc(Nc3ccc(C)cc3)n2)CC1` yielded an RP-LC retention time of 693 s.
`O=C(NCc1cccs1)C1CCCN(c2nnc3c(Cl)cccn23)C1` (centres undefined) gave an RP-LC retention time of 684 s.
Work on `CCn1cc(-c2nc(C(=O)Nc3ccc(F)c(F)c3)cs2)c2cccnc21` yielded an RP-LC retention time of 940 s.
For `O=C(Cn1c(-c2cccs2)cc2cc(Cl)ccc21)NCCN1CCOCC1`, the RP-LC retention time was 706 s.
`CC(C)(C)OC(=O)COC(=O)c1cn(-c2cccc(F)c2)c(=O)c2ccccc12` showed an RP-LC retention time of 1160 s.
With `CN1CCN(Cc2nn(C)c3c2CN(S(=O)(=O)c2ccc(F)c(Cl)c2)CC3)CC1` the RP-LC retention time was 622 s.
Compound `COc1ccc(Cc2nc(-c3ccc4oc(C)nc4c3)no2)cc1OC` has an RP-LC retention time of 892 s.
Compound `CCOc1cc(=O)n2c(c1C(=O)Nc1ccc(Cl)c(C)c1)CCCC2` has an RP-LC retention time of 829 s.
`O=C(c1ccc(F)c(F)c1)N1CCC(n2c(-c3ccoc3)nc3cccnc32)C1` (centres undefined) showed an RP-LC retention time of 745 s.
Compound `Cc1ccc2[nH]c(=O)c(CCC(=O)NCCN3CCc4ccccc4C3)cc2c1` has an RP-LC retention time of 634 s.
Work on `Fc1ccc(-c2nc3ncccn3c2Nc2ccc(Cl)cc2)cc1` yielded an RP-LC retention time of 847 s.
Compound `Cc1ccc2c(Nc3ccc(C)c(C)c3)c(C(=O)N3CCCCC3C)cnc2n1` (centres undefined) has an RP-LC retention time of 672 s.
Compound `COc1ccc(-c2noc(C3CCCN3C(=O)c3ccc(C)s3)n2)cc1` (centres undefined) has an RP-LC retention time of 996 s.
Work on `O=C(Cn1c(=O)oc2ccccc21)Nc1nc(-c2ccc(Br)cc2)cs1` yielded an RP-LC retention time of 1050 s.
Compound `O=C(Cn1c(N2CCCCC2)nc2ccccc2c1=O)N1CCN(c2ccccc2)CC1` has an RP-LC retention time of 976 s.
`Cc1noc(C)c1CCNC(=O)C(C)n1c2ccccc2c2cnn(C)c(=O)c21` (centres undefined) showed an RP-LC retention time of 741 s.
For `O=C(Cn1cc(-c2ccccc2)c2ncnc(N3CCOCC3)c21)N1CCN(c2ccccc2)CC1`, the RP-LC retention time was 717 s.
Compound `O=C(CCCn1c(=O)c2cccn2c2ccc(F)cc21)Nc1ccc2c(c1)OCCO2` has an RP-LC retention time of 642 s.
`Cc1cc(C)c(S(=O)(=O)NCCc2cn(CC(C)C)c3ncccc23)cc1C` showed an RP-LC retention time of 1040 s.
For `O=C(Cn1ncc2c(c1=O)N(CC1CC1)C(=O)CS2)NCc1ccc(F)cc1`, the RP-LC retention time was 750 s.
`COc1cccc(S(=O)(=O)N2CCC3(CC2)N(c2ccccc2)C(=O)CS3=O)c1` (centres undefined) showed an RP-LC retention time of 737 s.
In the case of `CCOc1ccc2nc(C(=O)NCc3ccc(OC(C)C)cc3)cn2n1`, the RP-LC retention time is reported as 940 s.
Work on `COc1ccc(OC)c(CN2C(=O)c3ccccc3C2C(=O)NCC2CCCO2)c1` (centres undefined) yielded an RP-LC retention time of 641 s.
Work on `O=C(c1ccc(-n2c(-c3ccccc3)nc3cccnc32)cc1)N1CCN(c2ccccn2)CC1` yielded an RP-LC retention time of 613 s.
Work on `COC(=O)c1ccccc1Nc1c(-c2ccc(N3CCOCC3)cc2)nc2cnccn12` yielded an RP-LC retention time of 874 s.
`O=S(=O)(NCc1ccccc1Cl)c1c[nH]c2ncccc12` showed an RP-LC retention time of 742 s.
Compound `CCCCNC(=O)c1cn(C)nc1S(=O)(=O)N1CCC(C)CC1` has an RP-LC retention time of 938 s.
Work on `Cn1cc(CCN2CCC(C(=O)NCc3ccc(Cl)cc3)CC2)c2cccnc21` yielded an RP-LC retention time of 617 s.
Compound `CCc1ccc(S(=O)(=O)Nc2ccc(N3CCCN(C)CC3)cc2C(=O)O)cc1` has an RP-LC retention time of 650 s.
Work on `O=C(Cn1nc2c(Oc3ccc(Cl)cc3)nccn2c1=O)NCc1ccco1` yielded an RP-LC retention time of 804 s.
`CCCCn1cc(S(=O)(=O)NCc2ccccc2F)c2cccnc21` gave an RP-LC retention time of 754 s.
For `CCCc1nnc(NC(=O)CSc2ncc(-c3ccccc3)[nH]2)s1`, the RP-LC retention time was 632 s.
In the case of `CN1C(=O)CC[C@]2(C(=O)NCc3cccc(C(F)(F)F)c3)CCCC[C@@H]12`, the RP-LC retention time is reported as 744 s.
`CCOCCCNC(=O)N1CCN(Cc2nc3cc(C(=O)NC(C)C)ccc3n2C)CC1` gave an RP-LC retention time of 593 s.
`CC(C)N1C(=O)Cc2ccccc2C1C(=O)NCc1ccc(F)cc1` (centres undefined) showed an RP-LC retention time of 796 s.
Compound `Cc1[nH]nc(-c2c(C)sc(C)c2S(=O)(=O)NCCC2=CCCCC2)c1C` has an RP-LC retention time of 1210 s.
`O=C(c1ccc2nc[nH]c2c1)N1CCC(c2nc(-c3ccccc3)no2)C1` (centres undefined) gave an RP-LC retention time of 626 s.
Compound `CCOc1ccc(-c2noc(Cn3c(=O)n(CC(C)C)c(=O)c4ccccc43)n2)cc1OC` has an RP-LC retention time of 1270 s.
Work on `COC(=O)c1cc(OCC(=O)Nc2ccc(Cl)cc2)c2cc(OC)ccc2n1` yielded an RP-LC retention time of 899 s.
For `O=c1[nH]c2ccc(NCc3ccccc3)cc2[nH]1`, the RP-LC retention time was 571 s.
Work on `COc1ccc(C)cc1NC(=O)Cn1nc(N2CCCC2)c2ccccc2c1=O` yielded an RP-LC retention time of 840 s.
With `CCN(CC)c1ncc2c(n1)CCC(C(=O)NCc1nc3ccccc3n1C)C2` (centres undefined) the RP-LC retention time was 537 s.
For `CCc1nc(-c2cc3ccccc3nc2N2CCN(c3ccc(OC)cc3)CC2)no1`, the RP-LC retention time was 687 s.
With `Cc1ccc(-c2cn3c(CC(=O)NCCC4=CCCCC4)csc3n2)cc1C` the RP-LC retention time was 942 s.
Work on `COc1ccc(CNC(=O)C2CCN(c3ccc(SCc4ccccc4)nn3)CC2)cc1OC` yielded an RP-LC retention time of 704 s.
`COCc1nc(C2CCN(S(=O)(=O)c3ccc(C#N)cc3)C2)no1` (centres undefined) showed an RP-LC retention time of 785 s.
With `CCOC(=O)c1c(C)[nH]c(C(=O)N2CCC(CC(=O)NC3CCCC3)CC2)c1C` the RP-LC retention time was 720 s.
Compound `O=C(Cn1nc2c(cc1=O)CCCC2)Nc1nc(-c2ccc3c(c2)OCCCO3)cs1` has an RP-LC retention time of 862 s.
With `COC(=O)c1ccccc1Nc1c(-c2ccccc2)nc2cnc(Br)cn12` the RP-LC retention time was 1090 s.
Compound `CN(C)c1ccc(C(=O)NCCCCCCC(=O)NO)cc1` has an RP-LC retention time of 631 s.
With `CC(Oc1ccccc1)C(=O)N(C)CCc1noc(-c2ccccc2)n1` (centres undefined) the RP-LC retention time was 903 s.
In the case of `O=C(Nc1ccc(N2CCCCC2=O)cc1)c1cccc2ccccc12`, the RP-LC retention time is reported as 722 s.
`COCCN1C(=O)[C@H]2CN(Cc3ccc(F)c(Br)c3)C[C@H]2C1=O` gave an RP-LC retention time of 680 s.
In the case of `COc1ccc(NC(=O)N2CCC(CCOc3cccnc3)CC2)cc1`, the RP-LC retention time is reported as 630 s.
`O=C(NCC1CC1)c1nnn(Cc2ccc(Cl)cc2)c1-n1cccc1` showed an RP-LC retention time of 1010 s.
With `COc1cc(SC)ccc1C(=O)NCCc1c[nH]c2ccc(C)cc12` the RP-LC retention time was 953 s.
`O=C(CCCc1nc2ccccc2s1)N1CCC(CCOc2ccccc2)C1` (centres undefined) gave an RP-LC retention time of 1050 s.
`CNC(=O)N1CC(c2nc(-c3ccc(F)cc3)no2)C2(CCOCC2)C1` (centres undefined) showed an RP-LC retention time of 723 s.
For `Cc1ccc(-c2noc(Cc3nc(-c4ccccc4)cs3)n2)cc1`, the RP-LC retention time was 1260 s.
For `CCc1ccc(N2CC(c3nc(-c4cc(OC)c(OC)c(OC)c4)no3)CC2=O)cc1` (centres undefined), the RP-LC retention time was 988 s.
With `CC(C)c1c(C(=O)O)nnn1Cc1ccc(Cl)cc1` the RP-LC retention time was 788 s.
In the case of `Cc1ccc(NS(=O)(=O)c2cn(CC(C)C)c3ncccc23)cc1`, the RP-LC retention time is reported as 986 s.
`COc1ccc(OCCN2CC(=O)N(c3ccc(C)c(C)c3)[C@@H]3CS(=O)(=O)C[C@@H]32)cc1` showed an RP-LC retention time of 859 s.
With `Cc1sc(C)c(S(=O)(=O)N2CC=C(c3ccccc3)CC2)c1-c1cc(C(F)(F)F)on1` the RP-LC retention time was 1300 s.
In the case of `Cc1cccc(C)c1Nc1c(-c2ccc(O)cc2)nc2ncccn12`, the RP-LC retention time is reported as 658 s.
Compound `COc1ccccc1C(=O)NCCc1c[nH]c2ccc(F)cc12` has an RP-LC retention time of 842 s.
Work on `COC(=O)CNC(=O)C1COc2ccc(NC(=O)c3ccc(Br)cc3)cc2C1` (centres undefined) yielded an RP-LC retention time of 794 s.
Work on `COc1ccc(CN2CN=C(Nc3nc(C)c4cccc(OC)c4n3)NC2)cc1` yielded an RP-LC retention time of 750 s.
With `COc1cccc(C2Cn3nnc(-c4nc(-c5ccc(OC)c(F)c5)no4)c3CO2)c1` (centres undefined) the RP-LC retention time was 1140 s.
Work on `COc1ccc(NC(=O)Cn2cnc3c(sc4nc(-c5ccccc5)ccc43)c2=O)cc1` yielded an RP-LC retention time of 967 s.
In the case of `CN1C(=O)c2cccn2CC1C(=O)NCCc1c[nH]c2ccccc12` (centres undefined), the RP-LC retention time is reported as 690 s.

— the METLIN SMRT retention time set (Domingo-Almenara et al. 2019)
